Assay in all cases: broth microdilution MIC/MBC
What all share (type): cell-based

For assay [1], the system named is MSSA JCM2874. The conditions noted are these: Staphylococcus aureus, ABPC.
Assay [2] has as its system MSSA ATCC6538. The conditions noted are these: Staphylococcus aureus, ABPC.
Assay [3] has as its system MRSA N315. The conditions noted are these: Staphylococcus aureus, ABPC.
The subject of assay [4] is MRSA JCM8703. The conditions noted are these: Staphylococcus aureus, ABPC.
In assay [5] the test system is MRSA clinical isolate 1801 blaZ(−). Conditions: Staphylococcus aureus, ABPC.
Assay [6] deals with MRSA clinical isolate 2022 blaZ(−). Conditions: Staphylococcus aureus, ABPC.
The subject of assay [7] is MRSA clinical isolate 2005 blaZ(+). The conditions noted are these: Staphylococcus aureus, ABPC.
The test system of assay [8] is MRSA clinical isolate 2526 blaZ(+). Conditions: Staphylococcus aureus, ABPC.
The subject of assay [9] is VSE5804. The conditions noted are these: Enterococcus, ABPC. As for the experimental part:
Ampicillin (ABPC) was used as a positive control. The measurement was carried out in accordance with a broth microdilution method (NCCLS). […] These serial dilutions were placed in a 96-well plate, and a bacterial strain was added to each well at an amount of 10^5 CFU/ml, followed by incubation at 35° C. for 18 hours. In the case where turbidity was visually observed, it was judged that the bacterial strain grew. The lowest concentration at which the bacterial growth was not observed was defined as MIC. A solution was collected from the well in which bacterial growth was not observed, added to an antibiotic-free medium, and then incubated at 35° C. for 18 hours, followed by visually observing existence of turbidity. The lowest concentration at which turbidity was not observed was defined as MBC. Values in the tables are: ABPC, μg/ml; polymer particles, mg/ml. Numbers in the parentheses indicate the dilution factor.

Assay [10] concerns VRE GTC02000. Conditions: Enterococcus, ABPC.

In brackets after ≈: the same amount, converted by molar mass.

From patent US20100285140A1, “ANTIMICROBIAL AGENT FOR GRAM-POSITIVE BACTERIA” (priority 2007, published 2010) come the findings set out here.

Regarding `CC1(C)S[C@@H]2[C@H](NC(=O)[C@H](N)c3ccccc3)C(=O)N2[C@H]1C(=O)O` [ABPC, Ampicillin], the MBC in assay [1] amounted to 2 µg/mL (≈ 5.72 µM); in [2], 0.063 µg/mL (≈ 0.18 µM); in assay [3], 32 µg/mL (≈ 91.6 µM); in assay [4], 64 µg/mL (≈ 183 µM); in assay [5] it was 16 µg/mL (≈ 45.8 µM); in assay [6] it was 16 µg/mL (≈ 45.8 µM). Also, the MBC in assay [7] came out at 64 µg/mL (≈ 183 µM); in assay [8], 64 µg/mL (≈ 183 µM); in assay [9], 0.5 µg/mL (≈ 1.43 µM); in assay [10], 1 µg/mL (≈ 2.86 µM). Moreover, the MIC in [1] stood at 2 µg/mL (≈ 5.72 µM); in [2], 0.063 µg/mL (≈ 0.18 µM); in [4], 64 µg/mL (≈ 183 µM); in assay [5], 16 µg/mL (≈ 45.8 µM); in assay [6] it was 16 µg/mL (≈ 45.8 µM); in [7], 64 µg/mL (≈ 183 µM). Also, the MIC in assay [8] stood at 64 µg/mL (≈ 183 µM); in assay [9], 0.5 µg/mL (≈ 1.43 µM); in assay [10] it was 1 µg/mL (≈ 2.86 µM).
